Results as given in patent US11083725B2 (priority 2014, dated 2021).

Test system: NHBE cells
Assay: Biolog metabolic array: substrate use by NHBE cells with or without CA09 infection
Type: cell-based, human
Details: for Substrate use, 590 nm absorbance normalized to zero hour, 1 hr: Biolog PMM2, 1 hr; for Substrate use, 590 nm absorbance normalized to zero hour, 5 hr: Biolog PMM2, 5 hr; for Substrate use, 590 nm absorbance normalized to zero hour, 7 hr: Biolog PMM2, 7 hr
[1] = Control (uninfected) NHBE cells
[2] = Virus (CA09-infected NHBE cells, MOI 1)
[3] = Virus: CA09-infected NHBE cells, MOI 1, Biolog PMM2
[4] = Virus (CA09, MOI 1) infected NHBE cells
[5] = Virus (CA09-infected, MOI 1) NHBE cells

Row | Compound | 590 nm absorbance normalized to zero hour (substrate use), 1 hr [1] | 590 nm absorbance normalized to zero hour (substrate use), 2 hr [1] | 590 nm absorbance normalized to zero hour (substrate use), 3 hr [1] | 590 nm absorbance normalized to zero hour (substrate use), 4 hr [1] | 590 nm absorbance normalized to zero hour (substrate use), 6 hr [1] | 590 nm absorbance normalized to zero hour (substrate use), 8 hr [1] | 590 nm absorbance normalized to zero hour (substrate use), 9 hr [1] | 590 nm absorbance normalized to zero hour (substrate use), 10 hr [1] | 590 nm absorbance normalized to zero hour (substrate use), 11 hr [1] | Substrate use, 590 nm absorbance normalized to zero hour, 1 hr [1] | Substrate use, 590 nm absorbance normalized to zero hour, 5 hr [1] | Substrate use, 590 nm absorbance normalized to zero hour, 7 hr [1] | 590 nm absorbance normalized to zero hour (substrate use), 1 hr [2] | 590 nm absorbance normalized to zero hour (substrate use), 2 hr [2] | 590 nm absorbance normalized to zero hour (substrate use), 3 hr [2] | 590 nm absorbance normalized to zero hour (substrate use), 4 hr [2] | 590 nm absorbance normalized to zero hour (substrate use), 5 hr [2] | 590 nm absorbance normalized to zero hour (substrate use), 6 hr [2] | 590 nm absorbance normalized to zero hour (substrate use), 7 hr [2] | 590 nm absorbance normalized to zero hour (substrate use), 8 hr [2] | further results
1 | C[C@H](O)[C@H](O)[C@@H](O)[C@@H](O)C=O [L-Rhamnose] | 1.28 | 1.52 | 1.49 | 1.66 | 2.53 | 2.01 | 2.71 | 2.22 | 2.36 | 1.28 | 2.12 | 1.91 | 0.16 | 0.22 | 0.25 | 0.28 | 0.32 | 0.34 | 0.36 | 0.38 | 590 nm absorbance normalized to zero hour (substrate use), 9 hr [2]: 0.41; 590 nm absorbance normalized to zero hour (substrate use), 10 hr [2]: 0.43; 590 nm absorbance normalized to zero hour (substrate use), 11 hr [2]: 0.46; 590 nm absorbance normalized to zero hour (substrate use), 1 hr [3]: 0.16; 590 nm absorbance normalized to zero hour (substrate use), 2 hr [3]: 0.22; 590 nm absorbance normalized to zero hour (substrate use), 3 hr [3]: 0.25; 590 nm absorbance normalized to zero hour (substrate use), 4 hr [3]: 0.28; 590 nm absorbance normalized to zero hour (substrate use), 5 hr [3]: 0.32; 590 nm absorbance normalized to zero hour (substrate use), 6 hr [3]: 0.34; 590 nm absorbance normalized to zero hour (substrate use), 7 hr [3]: 0.36; 590 nm absorbance normalized to zero hour (substrate use), 8 hr [3]: 0.38; 590 nm absorbance normalized to zero hour (substrate use), 9 hr [3]: 0.41; 590 nm absorbance normalized to zero hour (substrate use), 10 hr [3]: 0.43; 590 nm absorbance normalized to zero hour (substrate use), 11 hr [3]: 0.46
2 | O=C(CO)[C@@H](O)[C@H](O)[C@@H](O)CO [L-Sorbose] | 1.57 | 2.05 | 2.28 | 2.38 | 4.12 | 2.81 | 2.80 | 3.02 | 2.98 | 1.57 | 2.79 | 2.84 | 0.18 | 0.23 | 0.26 | 0.28 | 0.32 | 0.34 | 0.37 | 0.38 | 590 nm absorbance normalized to zero hour (substrate use), 0 hr [1]: 1.00; Substrate use, 590 nm absorbance normalized to zero hour, 0 hr (Control (uninfected) NHBE cells, Biolog PMM2, 0 hr): 1.00; 590 nm absorbance normalized to zero hour (substrate use), 0 hr [2]: 1.00; 590 nm absorbance normalized to zero hour (substrate use), 9 hr [2]: 0.41; 590 nm absorbance normalized to zero hour (substrate use), 10 hr [2]: 0.41; 590 nm absorbance normalized to zero hour (substrate use), 11 hr [2]: 0.48; 590 nm absorbance normalized to zero hour (substrate use), 0 hr [3]: 1.00; 590 nm absorbance normalized to zero hour (substrate use), 1 hr [3]: 0.18; 590 nm absorbance normalized to zero hour (substrate use), 2 hr [3]: 0.23; 590 nm absorbance normalized to zero hour (substrate use), 3 hr [3]: 0.26; 590 nm absorbance normalized to zero hour (substrate use), 4 hr [3]: 0.28; 590 nm absorbance normalized to zero hour (substrate use), 5 hr [3]: 0.32; 590 nm absorbance normalized to zero hour (substrate use), 6 hr [3]: 0.34; 590 nm absorbance normalized to zero hour (substrate use), 7 hr [3]: 0.37; 590 nm absorbance normalized to zero hour (substrate use), 8 hr [3]: 0.38; 590 nm absorbance normalized to zero hour (substrate use), 9 hr [3]: 0.41; 590 nm absorbance normalized to zero hour (substrate use), 10 hr [3]: 0.41; 590 nm absorbance normalized to zero hour (substrate use), 11 hr [3]: 0.48
3 | OC[C@@H](O)[C@@H](O[C@@H]1O[C@H](CO)[C@H](O)[C@H](O)[C@H]1O)[C@H](O)[C@@H](O)CO [Lactitol] | 0.19 | 0.26 | 0.31 | 0.33 | 0.40 | 0.47 | 0.50 | 0.55 | 0.62 | 0.19 | 0.39 | 0.44 |  |  |  |  |  |  |  |  | Substrate use, 590 nm absorbance normalized to zero hour, 1 hr [4]: 1.61; Substrate use, 590 nm absorbance normalized to zero hour, 5 hr [4]: 3.16; Substrate use, 590 nm absorbance normalized to zero hour, 7 hr [4]: 3.55; 590 nm absorbance normalized to zero hour (substrate use), 1 hr [5]: 1.61; 590 nm absorbance normalized to zero hour (substrate use), 2 hr [5]: 2.20; 590 nm absorbance normalized to zero hour (substrate use), 3 hr [5]: 2.54; 590 nm absorbance normalized to zero hour (substrate use), 4 hr [5]: 2.73; 590 nm absorbance normalized to zero hour (substrate use), 6 hr [5]: 3.38; 590 nm absorbance normalized to zero hour (substrate use), 8 hr [5]: 3.76; 590 nm absorbance normalized to zero hour (substrate use), 9 hr [5]: 4.11; 590 nm absorbance normalized to zero hour (substrate use), 10 hr [5]: 4.31; 590 nm absorbance normalized to zero hour (substrate use), 11 hr [5]: 4.66
